Assay results as given in patent US20120323012A1, “4-(AZACYCLOALKYL) -BENZENE-1,3-DIOL DERIVATIVES AS TYROSINASE INHIBITORS AND THEIR SYNTHESIS AND USE THEREOF” (GALDERMA RESEARCH & DEVELOPMENT, priority 2009, published 2012).

Experiments:
tyrosinase = target: T1, tyrosinase (Mus musculus, UniProt P11344); assay: Tyrosinase activity inhibition test (B16F1 cell lysate, L-tyrosine/MBTH, 520 nm); format: biochemical, murine; details: lysate of B16F1 cells, 6 hours incubation at 37° C.; read-out: Tyrosine hydroxylase/Dopa oxidase IC50
T1 construct: the supernatant obtained constituted the cell lysate used as the source of tyrosinase in the enzymatic test; endogenous in cells; host or cells: B16F1 murine melanoma cells, stimulated with alpha-MSH; detergent lysate supernatant
T1 sequence (P11344 19-533): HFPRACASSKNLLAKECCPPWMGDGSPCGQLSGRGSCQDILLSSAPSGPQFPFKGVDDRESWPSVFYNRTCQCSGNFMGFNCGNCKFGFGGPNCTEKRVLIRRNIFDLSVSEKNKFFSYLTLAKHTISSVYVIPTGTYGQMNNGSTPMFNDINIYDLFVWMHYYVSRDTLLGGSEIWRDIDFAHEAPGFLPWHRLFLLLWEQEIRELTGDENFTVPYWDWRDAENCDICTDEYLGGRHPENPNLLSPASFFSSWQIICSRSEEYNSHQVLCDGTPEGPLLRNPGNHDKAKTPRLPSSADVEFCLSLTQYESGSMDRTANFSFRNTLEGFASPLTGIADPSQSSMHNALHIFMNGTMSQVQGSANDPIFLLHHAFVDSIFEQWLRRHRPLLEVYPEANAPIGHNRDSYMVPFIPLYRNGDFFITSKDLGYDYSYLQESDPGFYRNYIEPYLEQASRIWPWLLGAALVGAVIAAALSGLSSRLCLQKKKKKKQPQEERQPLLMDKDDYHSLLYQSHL
Procedure: The activity of the inhibitors was measured using a lysate of B16F1 cells (murine melanoma line). In the presence of L-tyrosine substrate, the tyrosinase present in these cells catalyses the hydroxylation of L-tyrosine to L-DOPA then oxidation of the L-DOPA to dopaquinone. In the presence of MBTH (3-methyl-2-benzo-thiazolinone hydrazone), dopaquinone is trapped to form a pink complex which absorbs at 520 nm.
The B16F1 cells were cultivated in DMEM medium+10% foetal calf serum+10^−9 M of αMSH for 4 days at 37° C. under 7% CO2. They were treated with trypsin, washed with PBS, counted and centrifuged. The pellet was taken up in an amount of 10^7 cells/mL in lysis buffer (sodium phosphate, 10 mM pH 6.8-Igepal 1%) and the suspension was treated with ultrasound for 10 seconds. After centrifuging for 30 minutes at 4000 rpm, the supernatant obtained constituted the cell lysate used as the source of tyrosinase in the enzymatic test.
The tests were carried out in duplicate in 384-well plates with a total volume of 50 μl. Each well contained: […]
The plate was incubated at 37° C. and a spectrographic recording was produced at 520 nm after 6 hours incubation. In order to compensate for any absorption by the products, a corrected absorbance was used (absorbance at time 6 h−absorbance at time zero). […]

[1] = tested on: MNT1 human melanoma cells; assay: Melanogenesis inhibition test (14C-thiouracil incorporation normalized by 3H-leucine); format: cell-based; details: MNT-1, 24 h incubation, 14C incorporation normalized by 3H incorporation
Procedure: (§1) The inhibition of melanogenesis was measured in MNT1 human melanoma cells using a protocol adapted from Reigner et al, Cell Mol Biol (1999) 45: 969-980. The test was based on the concomitant incorporation of 2 radiolabelled tracers: ^14C-thiouracil is incorporated into neosynthesized melanin and reflects melanogenesis, while ^3H-leucine is incorporated into proteins and reflects cell viability and, as a result, the toxicity of the test compounds.
(§2) The MNT1 cells were plated into 96-well plates in the presence of the test compounds and radioisotopes. After 24 h incubation at 37° C., the cells were washed and the quantity of the 2 radioisotopes was measured. The test compounds were dose-response tested in order to calculate the IC50 inhibition of melanogenesis on the basis of the ^14C incorporation which was normalized by the ^3H incorporation. A cell toxicity IC50 was also calculated on the basis of the ^3H incorporation.

[2] = Cell toxicity (3H-leucine incorporation) in the melanogenesis inhibition test; format: cell-based; details: human, MNT1 human melanoma cells, 24 h incubation
Procedure: as §1, §2

In the case of `CCCCc1ccc(O)cc1O` [4-butylresorcinol (Rucinol), 4-butylresorcinol, reference compound], the IC50 (tyrosinase) is reported as 3 µM, the IC50 [1] is reported as 15 µM and the IC50 at 24 h [2] is reported as 55 µM.

With `O=S(=O)(Cc1ccccc1)N1CCC(c2ccc(O)cc2O)CC1` [Compound 1, 4-(1-phenylmethanesulphonylpiperidin-4-yl)-benzene-1,3-diol] the IC50 [1] was 0.2 µM, the melting point was 207 to 208 °C and the IC50 at 24 h [2] was over 999 µM.

In the case of `Cc1ccc(S(=O)(=O)N2CCC(c3ccc(O)cc3O)CC2)cc1` [Compound 2, 4-[1-(toluene-4-sulphonyl)piperidin-4-yl]-benzene-1,3-diol], the IC50 (tyrosinase) is reported as 1.5 µM.
